The subject of the first test is Lox-IMVI melanoma cell line. In words: Lox-IMVI anti-proliferative assay (growth inhibition, Cell Titer-Glo). The note with it: Homo sapiens; IC50 activity level in the cell-based Lox-IMVI anti-proliferative assay; read-out: Activity. It is filed as cell-based, human. Put shortly: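 Cells grown in RPMI + 10% FBS were exposed to compound at 0.5 nM to 10 μM (10-point, 3-fold dilution, duplicate, 0.2% DMSO final) for 72 h at 37 °C, 5% CO2. Viability was read by ATP luminescence at t0 and 72 h. IC50 came from a four-parameter logistic fit normalized to DMSO control.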
(In general: ATP-based viability assays read luminescence as a measure of living cells.)
With `NC(=O)[C@H]1CC[C@@H](n2c(Nc3c(F)cc(Cl)cc3Cl)nc3cnc(N[C@H]4CCC[C@@H]4O)nc32)CC1` [Example 271, (1R,4s)-4-(8-(2,4-dichloro-6-fluorophenylamino)-2-((1S,2S)-2-hydroxycyclopentylamino)-9H-purin-9-yl)cyclohexanecarboxamide], the IC50 was 0.5 to 1 µM.
On the same count and under the same terms, then `CC[C@H](C)Nc1ncc2nc(Nc3c(Cl)cccc3Cl)n([C@H]3CC[C@@H](C(N)=O)CC3)c2n1` [Example 336, (1R,4s)-4-(2-(sec-butylamino)-8-(2,6-dichlorophenylamino)-9H-purin-9-yl)cyclohexanecarboxamide], with greater than 1 µM; and `NC(=O)[C@H]1CC[C@@H](n2c(Nc3c(Cl)cccc3Cl)nc3cnc(NC4COC4)nc32)CC1` [Example 56, (1s,4s)-4-(8-(2,6-dichlorophenylamino)-2-(oxetan-3-ylamino)-9H-purin-9-yl)cyclohexanecarboxamide], with greater than 1 µM; and `C[C@@H](CO)Nc1ncc2nc(Nc3c(Cl)cc(Cl)cc3Cl)n([C@H]3CC[C@@H](C(N)=O)CC3)c2n1` [Example 165, (1R,4s)-4-(2-((S)-1-hydroxypropan-2-ylamino)-8-(2,4,6-trichlorophenylamino)-9H-purin-9-yl)cyclohexanecarboxamide], with 0.25 to 0.5 µM.
Still for that read-out and setting: then `NC(=O)[C@H]1CC[C@@H](n2c(Nc3ccc(Cl)cc3Cl)nc3cnc(N[C@@H]4CCC[C@H]4O)nc32)CC1` [Example 261, (1S,4s)-4-(8-(2,4-dichlorophenylamino)-2-((1R,2R)-2-hydroxycyclopentylamino)-9H-purin-9-yl)cyclohexanecarboxamide], with greater than 1 µM; and `Cc1cc(Cl)cc(F)c1Nc1nc2cnc(NC3CCOCC3)nc2n1[C@H]1CC[C@@H](C(N)=O)CC1` [Example 75, (1s,4s)-4-(8-(4-chloro-2-fluoro-6-methylphenylamino)-2-(tetrahydro-2H-pyran-4-ylamino)-9H-purin-9-yl)cyclohexanecarboxamide], with greater than 1 µM.
On the same count and under the same terms, then `NC(=O)[C@H]1CC[C@@H](n2c(Nc3c(F)ccc(Cl)c3F)nc3cnc(NC4CCOCC4)nc32)CC1` [Example 67, (1s,4s)-4-(8-(3-chloro-2,6-difluorophenylamino)-2-(tetrahydro-2H-pyran-4-ylamino)-9H-purin-9-yl)cyclohexanecarboxamide], with greater than 1 µM; and `NC(=O)[C@H]1CC[C@@H](n2c(Nc3ccc(Cl)c(F)c3F)nc3cnc(N[C@H]4COC[C@@H]4O)nc32)CC1` [Example 317, (1R,4s)-4-(8-(4-chloro-2,3-difluorophenylamino)-2-((3S,4R)-4-hydroxytetrahydrofuran-3-ylamino)-9H-purin-9-yl)cyclohexanecarboxamide], with 0.5 to 1 µM; and `NC(=O)[C@H]1CC[C@@H](n2c(Nc3ccc(Cl)cc3Cl)nc3cnc(NC4CCCC4)nc32)CC1` [Example 94, (1s,4s)-4-(2-(cyclopentylamino)-8-(2,4-dichlorophenylamino)-9H-purin-9-yl)cyclohexanecarboxamide], with greater than 1 µM.
Consider `CC[C@H](C)Nc1ncc2nc(Nc3c(F)cc(Cl)cc3Cl)n([C@H]3CC[C@@H](C(N)=O)CC3)c2n1` [Example 339, (1R,4s)-4-(2-(sec-butylamino)-8-(2,4-dichloro-6-fluorophenylamino)-9H-purin-9-yl)cyclohexanecarboxamide], for which the IC50 was 0.5 to 1 µM.

Still in this test, the particulars now being: Homo sapiens; Lox-IMVI anti-proliferative assay, IC50 activity level; read-out: Activity.
Turning to `C[C@]1(C(N)=O)CC[C@H](n2c(Nc3c(F)cc(Cl)cc3Cl)nc3cnc(N[C@@H]4CCC[C@H](O)C4)nc32)CC1` [Example 484, (1R,4r)-4-(8-(2,4-dichloro-6-fluorophenylamino)-2-((1R,3S)-3-hydroxycyclohexylamino)-9H-purin-9-yl)-1-methylcyclohexanecarboxamide], the IC50 is greater than 1 µM.
Same read-out and setting: then `NC(=O)[C@H]1CC[C@@H](n2c(Nc3c(Cl)cc(C(F)(F)F)cc3Cl)nc3cnc(NC4CCOCC4)nc32)CC1` [Example 442, (1s,4s)-4-(8-(2,6-dichloro-4-(trifluoromethyl)phenylamino)-2-(tetrahydro-2H-pyran-4-ylamino)-9H-purin-9-yl)cyclohexanecarboxamide], with 0.25 to 0.5 µM.
Still for that read-out and setting: for `C[C@@H](CO)Nc1ncc2nc(Nc3c(F)cc(F)cc3Cl)n([C@H]3CC[C@@](C)(C(N)=O)CC3)c2n1` [Example 548, (1R,4s)-4-(8-(2-chloro-4,6-difluorophenylamino)-2-((S)-1-hydroxypropan-2-ylamino)-9H-purin-9-yl)-1-methylcyclohexanecarboxamide] the value was less than 0.25 µM.
On the same count and under the same terms, for `NC(=O)[C@H]1CC[C@@H](n2c(Nc3cc(F)c(Cl)cc3F)nc3cnc(N[C@H]4CCC[C@H](O)C4)nc32)CC1` [Example 465, (1R,4s)-4-(8-(4-chloro-2,5-difluorophenylamino)-2-((1S,3S)-3-hydroxycyclohexylamino)-9H-purin-9-yl)cyclohexanecarboxamide] the value was greater than 1 µM; for `N#Cc1cc(Cl)c(Nc2nc3cnc(N[C@H](CO)C(F)(F)F)nc3n2[C@H]2CC[C@@H](C(N)=O)CC2)c(Cl)c1` [Example 472, (1S,4s)-4-(8-(2,6-dichloro-4-cyanophenylamino)-2-((R)-1,1,1-trifluoro-3-hydroxypropan-2-ylamino)-9H-purin-9-yl)cyclohexanecarboxamide], greater than 1 µM; for `NC(=O)[C@H]1CC[C@@H](n2c(Nc3c(F)cc(F)cc3F)nc3cnc(N[C@@H]4CCCC[C@H](O)C4)nc32)CC1` [Example 434, (1S,4s)-4-(2-((1R,3S)-3-hydroxycycloheptylamino)-8-(2,4,6-trifluorophenylamino)-9H-purin-9-yl)cyclohexanecarboxamide], greater than 1 µM.
As to `C[C@]1(O)CCC[C@@H](Nc2ncc3nc(Nc4c(Cl)cccc4Cl)n([C@H]4CC[C@@H](C(N)=O)CC4)c3n2)C1` [Example 424, (1S,4s)-4-(8-(2,6-dichlorophenylamino)-2-((1R,3S)-3-hydroxy-3-methylcyclohexylamino)-9H-purin-9-yl)cyclohexanecarboxamide], the IC50 is greater than 1 µM.
Still for that read-out and setting: for `NC(=O)[C@H]1CC[C@@H](n2c(Nc3c(Cl)cc(F)cc3Cl)nc3cnc(N[C@H]4CCC[C@H](O)C4)nc32)CC1` [Example 462, (1R,4s)-4-(8-(2,6-dichloro-4-fluorophenylamino)-2-((1S,3S)-3-hydroxycyclohexylamino)-9H-purin-9-yl)cyclohexanecarboxamide] the value was greater than 1 µM.

Staying with this test, now noted: Homo sapiens; Lox-IMVI melanoma cell line, anti-proliferative assay; read-out: Activity (IC50 activity level).
On to `N#Cc1cc(F)c(Nc2nc3cnc(NC4CCC(c5ncno5)CC4)nc3n2[C@H]2CC[C@@H](C(N)=O)CC2)c(Cl)c1` (stereo partly drawn) [Example 680, (1s,4s)-4-(2-(4-(1,2,4-oxadiazol-5-yl)cyclohexylamino)-8-(2-chloro-4-cyano-6-fluorophenylamino)-9H-purin-9-yl)cyclohexanecarboxamide], for which the IC50 was greater than 1 µM.
Turning to `C[C@]1(C(N)=O)CC[C@@H](n2c(Nc3c(F)cc(F)cc3Cl)nc3cnc(N[C@@H]4CCC[C@@H](O)C4)nc32)CC1` [Example 618, (1S,4s)-4-(8-(2-chloro-4,6-difluorophenylamino)-2-((1R,3R)-3-hydroxycyclohexylamino)-9H-purin-9-yl)-1-methylcyclohexanecarboxamide], the IC50 was in the range of 0.5 to 1 µM.
On the same count and under the same terms, then `N#Cc1cc(Cl)c(Nc2nc3cnc(N[C@@H]4CCC[C@@H](O)C4)nc3n2[C@H]2CC[C@@H](C(N)=O)CC2)c(Cl)c1` [Example 684, (1S,4s)-4-(8-(2,6-dichloro-4-cyanophenylamino)-2-((1R,3R)-3-hydroxycyclohexylamino)-9H-purin-9-yl)cyclohexanecarboxamide], with 0.5 to 1 µM; and `C[C@]1(C(N)=O)CC[C@@H](n2c(Nc3c(Cl)cc(F)cc3Cl)nc3cnc(N[C@H]4CCC[C@H](O)C4)nc32)CC1` [Example 613, (1R,4s)-4-(8-(2,6-dichloro-4-fluorophenylamino)-2-((1S,3S)-3-hydroxycyclohexylamino)-9H-purin-9-yl)-1-methylcyclohexanecarboxamide], with less than 0.25 µM; and `C[C@]1(C(N)=O)CC[C@@H](n2c(Nc3c(F)cc(Cl)cc3F)nc3cnc(NC4CCC4)nc32)CC1` [Example 608, (1s,4s)-4-(8-(4-chloro-2,6-difluorophenylamino)-2-(cyclobutylamino)-9H-purin-9-yl)-1-methylcyclohexanecarboxamide], with less than 0.25 µM.
Regarding `Cc1ccc(S(=O)(=O)N2CCC[C@@H](Nc3ncc4nc(Nc5c(F)cc(Cl)cc5Cl)n([C@H]5CC[C@@H](C(N)=O)CC5)c4n3)C2)cc1` [Example 793, (1S,4s)-4-(8-(2,4-dichloro-6-fluorophenylamino)-2-((R)-1-tosylpiperidin-3-ylamino)-9H-purin-9-yl)cyclohexanecarboxamide], the IC50 was greater than 1 µM.
In the case of `N#Cc1cc(F)c(Nc2nc3cnc(N[C@@H]4CCOC[C@H]4F)nc3n2[C@H]2CC[C@@H](C(N)=O)CC2)c(Cl)c1` [Example 629, (1S,4s)-4-(8-(2-chloro-4-cyano-6-fluorophenylamino)-2-((3S,4R)-3-fluorotetrahydro-2H-pyran-4-ylamino)-9H-purin-9-yl)cyclohexanecarboxamide], the IC50 was less than 0.25 µM.
On to `N#Cc1cc(Cl)c(Nc2nc3cnc(N[C@@H]4CCCN(Cc5ccccc5)C4)nc3n2[C@H]2CC[C@@H](C(N)=O)CC2)c(Cl)c1` [Example 753, (1S,4s)-4-(2-((R)-1-benzylpiperidin-3-ylamino)-8-(2,6-dichloro-4-cyanophenylamino)-9H-purin-9-yl)cyclohexanecarboxamide], for which the IC50 was greater than 1 µM.
Same read-out and setting: for `C[C@]1(C(N)=O)CC[C@@H](n2c(Nc3c(F)cc(F)cc3Cl)nc3cnc(NC4CCC4)nc32)CC1` [Example 604, (1s,4s)-4-(8-(2-chloro-4,6-difluorophenylamino)-2-(cyclobutylamino)-9H-purin-9-yl)-1-methylcyclohexanecarboxamide] the value was less than 0.25 µM.

The values above are taken from patent publication US11590139B2, “Substituted aminopurine compounds, compositions thereof, and methods of treatment therewith” (Signal Pharmaceuticals, LLC, priority 2014, dated 2023).
